Like-named read-outs stand apart in the source and are kept apart here.
Assays:
Format in all cases: in vivo
rice (Oryra sativa) = experiment: Test B flooded paddy test; settings: Oryza sativa, Flood, 250 g ai/ha; scale of 0 to 100 where 0 is no effect and 100 is complete control; read-out: Rice plant response rating
Summary of the method: (§1)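 Visual ratings (0 none to 100 complete control) are relative to untreated plants, taken 13–15 d after treatment in a greenhouse. Test material went straight into floodwater standing 3 cm above the soil, kept constant, on plants at the 2-leaf stage.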

[1] = system: ducksalad (Heteranthera limosa); experiment: Test B flooded paddy test; settings: Heteranthera limosa, Flood, 250 g ai/ha; scale of 0 to 100 where 0 is no effect and 100 is complete control; read-out: Ducksalad plant response rating
Summary of the method: as §1

[2] = system: sedge, umbrella (small-flower umbrella sedge, Cyperus difformis); experiment: Test B flooded paddy test; settings: Cyperus difformis, Flood, 250 g ai/ha; scale of 0 to 100 where 0 is no effect and 100 is complete control; read-out: Sedge, Umbrella plant response rating
Summary of the method: as §1

[3] = system: barnyardgrass (Echinochloa crus-galli); experiment: Test B flooded paddy test; settings: Echinochloa crus-galli, Flood, 250 g ai/ha; scale of 0 to 100 where 0 is no effect and 100 is complete control; read-out: Barnyardgrass plant response rating
Summary of the method: as §1

Kochia (Kochia scoparia) [4] = experiment: Test A preemergence; settings: Bassia scoparia, pre-emergence, 240 h, preemergence; for pest or weed control at 125 g/ha: 125 g ai/ha, 0 to 100 scale where 0 is no effect and 100 is complete control; for pest or weed control at 500 g/ha: 500 g ai/ha
Summary of the method: (§2)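 Ratings of 0 (no effect) to 100 (complete control) come from visual comparison with untreated controls roughly 10 d after treatment. Test chemicals, formulated in a non-phytotoxic solvent mixture with surfactant, were applied either as a preemergence directed soil spray on seeded soil or postemergence to one- to two-leaf plants 2 to 10 cm tall.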

corn (Zea mays) = experiment: Test A postemergence; settings: Zea mays, post-emergence, 240 h, 125 g ai/ha, visual injury after approximately 10 d
Summary of the method: as §2

[5] = system: ragweed (common ragweed, Ambrosia elatior); experiment: Test A postemergence; settings: Ambrosia artemisiifolia, post-emergence, 240 h, 125 g ai/ha, visual injury after approximately 10 d, read-out: Plant response rating, Ragweed
Summary of the method: as §2

[6] = system: giant foxtail (Setaria faberii); experiment: Test A postemergence; settings: Setaria faberi, post-emergence, 240 h, 125 g ai/ha, visual injury after approximately 10 d, read-out: Plant response rating, Foxtail, Giant
Summary of the method: as §2

[7] = system: blackgrass (Alopecurus myosuroides); experiment: Test A postemergence; settings: Alopecurus myosuroides, post-emergence, 240 h, 125 g ai/ha, visual injury after approximately 10 d, read-out: Plant response rating, Blackgrass
Summary of the method: as §2

Kochia (Kochia scoparia) [8] = experiment: Test A postemergence; settings: Bassia scoparia, post-emergence, 240 h, 125 g ai/ha, visual injury after approximately 10 d, read-out: Plant response rating, Kochia
Summary of the method: as §2

[9] = system: ryegrass, Italian (Italian ryegrass, Lolium multiflorum); experiment: Test A postemergence; settings: Lolium multiflorum, post-emergence, 240 h, 125 g ai/ha, visual injury after approximately 10 d, read-out: Plant response rating, Ryegrass, Italian
Summary of the method: as §2

[10] = system: barnyardgrass (Echinochloa crus-galli); experiment: Test A postemergence; settings: Echinochloa crus-galli, post-emergence, 240 h, 125 g ai/ha, visual injury after approximately 10 d, read-out: Plant response rating, Barnyardgrass
Summary of the method: as §2

[11] = system: pigweed (Amaranthus retroflexus); experiment: Test A postemergence; settings: Amaranthus retroflexus, post-emergence, 240 h, 125 g ai/ha, visual injury after approximately 10 d, read-out: Plant response rating, Pigweed
Summary of the method: as §2

[12] = system: wheat (Triticum aestivum); experiment: Test A postemergence; settings: Triticum aestivum, post-emergence, 240 h, 125 g ai/ha, visual injury after approximately 10 d, read-out: Plant response rating, Wheat
Summary of the method: as §2

[13] = system: Galium (catchweed bedstraw, Galium aparine); experiment: Test A postemergence; settings: Galium, post-emergence, 240 h, 125 g ai/ha, visual injury after approximately 10 d, read-out: Plant response rating, Galium
Summary of the method: as §2

[14] = Postemergence, 0 to 100 scale where 0 is no effect and 100 is complete control
[15] = postemergence, 0 to 100 scale (0 no effect, 100 complete control)

Work on CN1C[C@H](c2ccc(C(F)(F)F)cc2)[C@@H](C(=O)Nc2cccc(F)c2Cl)C1=O [Compound 938] yielded a pest or weed control at 250 g/ha (rice (Oryra sativa)) of 0%, a pest or weed control at 250 g/ha [1] of 60% and a pest or weed control at 250 g/ha [2] of 0%. The pest or weed control at 250 g/ha [3] was 40%, the pest or weed control at 125 g/ha (Kochia (Kochia scoparia) [4]; read-out: Kochia plant response rating) was 70% and the pest or weed control at 500 g/ha (Kochia (Kochia scoparia) [4]; visual injury rating about 10 d after treatment, 0 to 100 scale (0 no effect, 100 complete control), read-out: Kochia plant response rating) was 80%. It also gave a Corn plant response rating (crop injury, 0 = no effect, 100 = complete kill) at 125 g/ha (corn (Zea mays); [14]) of 60%, a pest or weed control at 125 g/ha [5, 14] of 0% and a pest or weed control at 125 g/ha [6, 14] of 80%. It also gave a pest or weed control at 125 g/ha [7, 14] of 40%, a pest or weed control at 125 g/ha (Kochia (Kochia scoparia) [8]; [14]) of 40% and a pest or weed control at 125 g/ha [9, 14] of 20%. For the same compound, the pest or weed control at 125 g/ha [10, 14] was 80%, the pest or weed control at 125 g/ha [11, 14] was 50% and the plant injury at 125 g/ha [12, 14] was 40%. The pest or weed control at 125 g/ha [13, 14] was 50%.

Compound CN1C[C@H](c2cc(F)c(F)c(F)c2)[C@@H](C(=O)Nc2ccc(F)c(F)c2F)C1=O [Compound 757] has a pest or weed control at 250 g/ha (rice (Oryra sativa)) of 80%, a pest or weed control at 250 g/ha [1] of 100% and a pest or weed control at 250 g/ha [2] of 0%. The pest or weed control at 250 g/ha [3] was 75%, the pest or weed control at 125 g/ha (Kochia (Kochia scoparia) [4]; visual rating after approx. 10 d, read-out: Plant response rating, Kochia) was 70% and the pest or weed control at 500 g/ha (Kochia (Kochia scoparia) [4]; 0 to 100 scale, 0 = no effect, 100 = complete control, read-out: Plant response rating, Kochia) was 70%. The Corn plant response rating (crop injury, 0 = no effect, 100 = complete kill) at 125 g/ha (corn (Zea mays); [15]) was 70%, the pest or weed control at 125 g/ha [5, 15] was 0% and the pest or weed control at 125 g/ha [6, 15] was 90%. It also gave a pest or weed control at 125 g/ha [7, 15] of 60%, a pest or weed control at 125 g/ha (Kochia (Kochia scoparia) [8]; [15]) of 20% and a pest or weed control at 125 g/ha [9, 15] of 20%. It also gave a pest or weed control at 125 g/ha [10, 15] of 90%, a pest or weed control at 125 g/ha [11, 15] of 20% and a plant injury at 125 g/ha [12, 15] of 60%. The pest or weed control at 125 g/ha [13, 15] was 50%.

Source: US12077503B2, “Substituted cyclic amides and their use as herbicides” (FMC CORPORATION, priority 2015, dated 2024)
